From PMC6639804 (The Biochemical journal, 2018)

Molecular target: T1, Cnx1E (Arabidopsis thaliana, UniProt Q39054)
T1 sequence (Q39054 1-452): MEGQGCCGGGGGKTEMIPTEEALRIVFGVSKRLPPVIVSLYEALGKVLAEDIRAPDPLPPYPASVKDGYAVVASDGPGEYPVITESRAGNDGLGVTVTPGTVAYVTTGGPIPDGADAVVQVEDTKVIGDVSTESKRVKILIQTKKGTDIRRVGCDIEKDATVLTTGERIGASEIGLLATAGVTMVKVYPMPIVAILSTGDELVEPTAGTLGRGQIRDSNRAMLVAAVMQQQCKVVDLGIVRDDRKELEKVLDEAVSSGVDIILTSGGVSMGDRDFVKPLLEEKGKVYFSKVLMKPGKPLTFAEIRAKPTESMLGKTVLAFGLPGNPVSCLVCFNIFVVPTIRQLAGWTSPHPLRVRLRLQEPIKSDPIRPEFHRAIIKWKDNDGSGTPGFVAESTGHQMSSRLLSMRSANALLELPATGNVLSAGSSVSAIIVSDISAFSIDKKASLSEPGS
Test: co-purified ligand, FormA-based HPLC
Assay type: binding
Details: co-purified from E. coli RK5206, not added; phosphodiesterase I treated sample

binding stoichiometry: 0.0136 +/− 0.0048
Structure (SMILES): Nc1nc2c(c(=O)[nH]1)N[C@H]1C(S)=C(S)[C@@H](COP(=O)(O)OP(=O)(O)OC[C@H]3O[C@@H](n4cnc5c(N)ncnc54)[C@H](O)[C@@H]3O)O[C@H]1N2 [MPT-AMP]
